Test results published in PubChem BioAssay (NCI).
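Test compounds were applied to cells in 96-well plates for 48 hours at 5 doses. The concentration for 50% growth inhibition is given as GI50. TGI marks complete inhibition of growth.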

What was measured:
Test in all cases: inhibition of tumour cell growth, NCI panel, 48 h
786-0 renal = tested on: 786-0 renal
HOP-92 NSCLC = tested on: HOP-92 NSCLC
HT29 colon = tested on: HT29 colon
KM12 colon = tested on: KM12 colon
OVCAR-8 ovarian = tested on: OVCAR-8 ovarian
RPMI-8226 leukemia = tested on: RPMI-8226 leukemia
SK-MEL-5 melanoma = tested on: SK-MEL-5 melanoma
SNB-75 CNS = tested on: SNB-75 CNS
SR leukemia = tested on: SR leukemia
TK-10 renal = tested on: TK-10 renal

| SMILES | GI50 (786-0 renal) [µM] | TGI (786-0 renal) [µM] | GI50 (HOP-92 NSCLC) [µM] | TGI (HOP-92 NSCLC) [µM] | GI50 (HT29 colon) [µM] | TGI (HT29 colon) [µM] | GI50 (KM12 colon) [µM] | TGI (KM12 colon) [µM] | GI50 (OVCAR-8 ovarian) [µM] | TGI (OVCAR-8 ovarian) [µM] | GI50 (RPMI-8226 leukemia) [µM] | TGI (RPMI-8226 leukemia) [µM] | GI50 (SK-MEL-5 melanoma) [µM] | TGI (SK-MEL-5 melanoma) [µM] | GI50 (SNB-75 CNS) [µM] | TGI (SNB-75 CNS) [µM] | GI50 (SR leukemia) [µM] | TGI (SR leukemia) [µM] | GI50 (TK-10 renal) [µM] | TGI (TK-10 renal) [µM] |
| --- | --- | --- | --- | --- | --- | --- | --- | --- | --- | --- | --- | --- | --- | --- | --- | --- | --- | --- | --- | --- |
| COc1cc(/C=C/C(=O)C(C(=O)/C=C/c2ccc(OC(=O)CCNc3nnc(C)s3)c(OC)c2)C(=O)CCNc2nnc(C)s2)ccc1OC(=O)CCNc1nnc(C)s1 | 2.58 | 9.51 | 2.48 | 8.4 | 1.63 | 3.56 | 1.63 | 3.18 | 2.93 | 16.7 | 1.85 | 4.86 | 1.87 | 4.52 | 6.19 | 34.5 | 1.18 | 3.31 | 4.03 | 13.7 |
| NC(N)=N/N=C(/c1ccccc1)c1ccc(Cl)cc1 | 16 | > 100 | 4.09 | 90.5 | 2.93 | 24.9 | 5.53 | > 100 | 36.4 | > 100 | 1.53 | 26.6 | 5.97 | 44.9 | 6.17 | 70.2 | 3.94 | > 100 | 32 | > 100 |
| O=C(CC/C(CC(=O)c1ccc(Cl)cc1)=N/O)Nc1ccc(Cl)c(Cl)c1 | – | > 100 | – | > 100 | – | > 100 | – | > 100 | – | > 100 | – | > 100 | – | > 100 | – | > 100 | – | > 100 | – | > 100 |
| CCCCCCCCCCCCSC(=NC)NC | 1.88 | 3.51 | 1.39 | 5.49 | 2.06 | 9.33 | – | – | 2.88 | > 100 | 2.07 | 4.77 | 1.48 | 2.85 | 1.78 | 3.55 | 1.37 | 5.32 | 1.71 | 3.49 |
| COc1ccc(Cn2cc3c(c2-c2ccc(O)cc2)CCc2cnoc2-3)cc1 | 0.695 | 19.1 | 13.9 | 33.4 | 0.587 | 4.79 | 0.241 | 10.4 | 0.633 | 23.6 | 0.365 | 6.36 | 0.315 | 12.6 | 0.221 | 0.676 | 0.149 | 3.79 | 0.603 | 24.4 |
| O=C1/C(=C/c2ccc(Cl)cc2)CN(Cc2cn(CCNc3ccnc4cc(Cl)ccc34)nn2)C/C1=C\c1ccc(Cl)cc1 | 0.247 | 0.616 | 0.496 | 1.83 | 0.231 | 0.489 | 0.22 | 0.496 | 0.367 | 1.43 | 0.272 | 1.05 | 0.807 | 2.08 | 1.22 | 2.63 | 0.245 | 0.815 | 0.483 | 1.6 |
| CC1(C)N=C(N)N=C(N)N1c1ccc(OCC(=O)N2CCOCC2)c(Cl)c1 | 20.2 | > 100 | > 100 | > 100 | 0.66 | > 100 | 4.7 | > 100 | 7.25 | > 100 | 9.04 | > 100 | 1.36 | > 100 | 10.3 | > 100 | 0.568 | > 100 | > 100 | > 100 |
| Cc1[nH]n(-c2ccc(S(=O)(=O)O)cc2)c(=O)c1N=Nc1ccccc1 | – | > 100 | – | > 100 | – | > 100 | – | > 100 | – | > 100 | – | > 100 | – | > 100 | – | > 100 | – | > 100 | – | > 100 |
| COCOCc1cc(OCc2ccccc2)c(OC)cc1Br | – | > 100 | – | > 100 | – | > 100 | – | > 100 | – | > 100 | – | > 100 | – | > 100 | – | > 100 | – | > 100 | – | > 100 |
| COc1cc(C(=O)N2CCN(c3ccccc3OC)CC2)c(N)cc1OCc1ccccc1 | 45.6 | > 100 | 14.8 | 43.4 | 31.3 | > 100 | 32.9 | 90.6 | 38.3 | > 100 | 21.1 | 49.2 | 16.5 | 31.4 | 42.6 | > 100 | 22.5 | 48.7 | 31.9 | 73.2 |
| O=C1Cc2ccccc2N1c1c(Cl)cccc1Cl | – | > 100 | – | > 100 | – | > 100 | – | > 100 | – | > 100 | – | 62.7 | – | > 100 | – | > 100 | – | 90.2 | – | > 100 |
| Oc1ccc2ccccc2c1C(c1ccc(Cl)cc1)c1c(O)ccc2ccccc12 | – | 12.4 | – | 4.89 | – | 9.78 | – | 7.87 | – | 19.9 | – | 5.21 | – | 6.93 | – | 10.8 | – | > 25.7 | – | 11.1 |
| Cc1ccc(NSc2ccccc2[N+](=O)[O-])cc1 | 1.5 | 16.3 | 0.502 | 13.7 | 0.117 | 12.3 | 0.141 | 12.5 | 2.91 | 36.3 | 0.925 | 52.3 | 0.152 | 13.6 | 0.557 | 9.32 | 0.113 | 36 | 10.4 | 25.4 |
| Cc1cc(O)ccc1O | 21.2 | 75.8 | 16.3 | 31.2 | 49.8 | > 100 | 26.2 | > 100 | 32.7 | > 100 | 9.26 | 89.7 | 62 | > 100 | 24.1 | > 100 | 19.4 | 76.6 | 19.5 | 35 |
